Test results: US20090036440A1, “NOVEL PYRIMIDINE DERIVATIVES - 816” (AstraZeneca AB, priority 2007, published 2009)

Experiments:
recombinant EphB4 = target: T1, recombinant EphB4 (Homo sapiens, UniProt P54760); assay: In vitro EphB4 enzyme assay (Alphascreen); type: biochemical
T1 construct: recombinant active EphB4 (amino acids 563-987; Swiss-Prot Acc; No. P54760); purchased ProQinase GmbH 0178-0000-3
T1 sequence (P54760 563-987): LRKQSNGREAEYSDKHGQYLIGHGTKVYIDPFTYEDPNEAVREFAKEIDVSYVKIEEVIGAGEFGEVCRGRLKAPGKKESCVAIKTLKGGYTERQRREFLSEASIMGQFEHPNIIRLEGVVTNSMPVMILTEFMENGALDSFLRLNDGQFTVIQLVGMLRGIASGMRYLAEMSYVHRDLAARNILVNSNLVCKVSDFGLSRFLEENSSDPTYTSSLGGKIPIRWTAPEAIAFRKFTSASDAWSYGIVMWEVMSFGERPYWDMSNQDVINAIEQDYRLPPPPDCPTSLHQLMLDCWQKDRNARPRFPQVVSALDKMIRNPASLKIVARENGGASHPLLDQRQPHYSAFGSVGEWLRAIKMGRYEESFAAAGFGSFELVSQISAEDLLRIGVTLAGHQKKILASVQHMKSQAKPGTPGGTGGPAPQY
Protocol: This assay detects inhibitors of EphB4-mediated phosphorylation of a polypeptide substrate using Alphascreen™ luminescence detection technology. Briefly, recombinant EphB4 was incubated with a biotinylated-polypeptide substrate (biotin-poly-GAT) in presence of magnesium-ATP. The reaction was stopped by addition of EDTA, together with streptavidin-coated donor beads which bind the biotin-substrate containing any phosphorylated tyrosine residues. Anti-phosphotyrosine antibodies present on acceptor beads bind to phosphorylated substrate, thus bringing the donor & acceptor beads into close proximity. Subsequent excitation of the donor beads at 680 nm generated singlet oxygen species that interact with a chemiluminescer on the acceptor beads, leading to light emission at 520-620 nm. The signal intensity is directly proportional to the level of substrate phosphorylation and thus inhibition is measured by a decrease in signal.
To ensure that each well contained a total of 120 nl DMSO the wells were all backfilled as required. […] The test range of compounds was 100× the required final concentration.
Assay plates were then incubated at room temperature for 1 hour.
For assays using compounds prepared via acoustic dispensing, the assay mix was adjusted such that the final assay volume of 12 ul contained the same concentration of reagent as 10 ul of assay mix used when aqueous compounds were tested.
The plates were sealed under natural lighting conditions, wrapped in aluminium foil and incubated in the dark for a further 20 hours.
The resulting assay signal was determined on the Perkin Elmer EnVision plate reader. The minimum value was subtracted from all values, and the signal plotted against compound concentration to generate IC50 data. The method used to generate the compound dilutions was recorded with the IC50 value in the database.

human EphB4 = target: T2, human EphB4 (Homo sapiens, UniProt P54760); assay: In vitro EphB4 cell assay (EphB4 phosphorylation ELISA in EphB4-CHO cells); type: cell-based; details: ephrin-B2 stimulated EphB4 phosphorylation, read-out: Mean IC50 values obtained using Assay B
T2 construct: to generate full-length EphB4 containing a Myc-His tag at the C-terminus; expressed in transfected cells; EphB4-CHO)
T2 sequence (P54760 16-987): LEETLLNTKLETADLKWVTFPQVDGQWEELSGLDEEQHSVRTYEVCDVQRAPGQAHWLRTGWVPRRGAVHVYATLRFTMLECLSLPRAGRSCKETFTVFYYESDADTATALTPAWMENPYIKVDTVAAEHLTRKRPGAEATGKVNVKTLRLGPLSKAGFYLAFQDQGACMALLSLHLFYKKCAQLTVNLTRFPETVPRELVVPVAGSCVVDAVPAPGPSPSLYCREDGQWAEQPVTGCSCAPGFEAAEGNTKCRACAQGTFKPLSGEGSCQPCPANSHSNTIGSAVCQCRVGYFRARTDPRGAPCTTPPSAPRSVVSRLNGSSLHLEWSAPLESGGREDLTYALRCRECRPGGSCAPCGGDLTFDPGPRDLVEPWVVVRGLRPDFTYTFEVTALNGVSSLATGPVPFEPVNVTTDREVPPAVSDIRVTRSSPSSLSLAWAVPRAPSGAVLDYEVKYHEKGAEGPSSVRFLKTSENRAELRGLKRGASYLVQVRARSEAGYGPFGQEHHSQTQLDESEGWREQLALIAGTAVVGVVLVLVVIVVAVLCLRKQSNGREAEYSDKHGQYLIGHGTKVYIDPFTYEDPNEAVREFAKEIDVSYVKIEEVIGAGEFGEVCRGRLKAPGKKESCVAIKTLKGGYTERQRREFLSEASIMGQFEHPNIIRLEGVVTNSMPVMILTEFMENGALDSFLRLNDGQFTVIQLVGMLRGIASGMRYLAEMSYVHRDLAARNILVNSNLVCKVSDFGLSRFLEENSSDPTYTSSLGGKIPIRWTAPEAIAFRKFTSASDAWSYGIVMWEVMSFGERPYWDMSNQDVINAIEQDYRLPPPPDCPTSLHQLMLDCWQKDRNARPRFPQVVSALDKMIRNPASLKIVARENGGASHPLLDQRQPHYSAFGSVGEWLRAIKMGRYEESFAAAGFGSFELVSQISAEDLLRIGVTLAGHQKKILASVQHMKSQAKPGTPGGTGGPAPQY
Protocol: The assay identifies inhibitors of cellular EphB4 by measuring a decrease in phosphorylation of EphB4 following treatment of cells with compound. The endpoint assay used a sandwich ELISA to detect EphB4 phosphorylation status. Briefly, Myc-tagged EphB4 from treated cell lysate was captured on the ELISA plate via an anti-c-Myc antibody. The phosphorylation status of captured EphB4 was then measured using a generic phosphotyrosine antibody conjugated to HRP via a calorimetric output catalysed by HRP, with level of EphB4 phosphorylation directly proportional to the colour intensity. Absorbance was measured spectrophotometrically at 450 nm.
Full length human EphB4 (Swiss-Prot Acc. No. P54760) was cloned using standard techniques from cDNA prepared from HUVEC using RT-PCR. The cDNA fragment was then sub-cloned into a pcDNA3.1 expression vector containing a Myc-His epitope tag to generate full-length EphB4 containing a Myc-His tag at the C-terminus (Invitrogen Ltd. Paisley, UK). CHO-K1 cells (LGC Promochem, Teddington, Middlesex, UK, Catalogue No. CCL-61) were maintained in HAM's F12 medium (Sigma-Aldrich Company Ltd, Gillingham, Dorset SP8 4XT, Catalogue No. N4888) containing 10% heat-inactivated foetal calf serum (PAA lab GmbH, Pasching, Austria Catalogue No. PAA-A15-043) and 1% glutamax-1 (Invitrogen Ltd., Catalogue No. 35050-038) at 37° C. with 5% CO2. CHO-K1 cells were engineered to stably express the EphB4-Myc-His construct using standard stable transfection techniques, to generate cells hereafter termed EphB4-CHO.
For each assay, 10,000 EphB4-CHO cells were seeded into each well of Costar 96-well tissue-culture plate (Fisher Scientific UK, Loughborough, Leicestershire, UK., Catalogue No. 3598) and cultured overnight in full media. On day 2, the cells were incubated overnight in 90 μl/well of media containing 0.1% Hyclone stripped-serum (Fisher Scientific UK, Catalogue No. SH30068.02). Test compounds were prepared as 10 mM stock solutions in DMSO (Sigma-Aldrich Company Ltd, Gillingham, Dorset SP8 4XT Catalogue No. 154938) and serially diluted with serum-free media to give a range of test concentrations at 10× the required final concentration. A 10 μl aliquot of each compound dilution was transferred to the cell plates in duplicate wells, and the cells incubated for 1 hour at 37° C. Each plate also contained control wells: a maximum signal was created using untreated cells, and minimum signal corresponding to 100% inhibition was created using wells containing a reference compound known to abolish EphB4 activity. […]

[1] = compound preparation: Genesis (aqueous dilution)
[2] = compound preparation: Echo (acoustic dispensing)

| SMILES | IC50 (recombinant EphB4; [1]) | IC50 (human EphB4) | IC50 (recombinant EphB4; [2]) |
| --- | --- | --- | --- |
| CN(c1ccnc(Nc2cc(Cl)cc(N3CCOCC3)n2)n1)c1ccc(F)c(Cl)c1F [Example 1, N′-(3-chloro-2,4-difluoro-phenyl)-N-(4-chloro-6-morpholin-4-yl-pyridin-2-yl)-N′-methyl-pyrimidine-2,4-diamine] | 38300 nM | 354 nM |  |
| CN(c1ccnc(Nc2cc(N3CCOCC3)nc(N3CCOCC3)c2)n1)c1ccc(F)c(Cl)c1F [Example 2.1, N′-(3-chloro-2,4-difluoro-phenyl)-N-(2,6-dimorpholin-4-ylpyridin-4-yl)-N′-methyl-pyrimidine-2,4-diamine] | 1120 nM | 8 nM |  |
| CN(c1ccnc(Nc2cc(N3CCOCC3)cc(N3CCOCC3)n2)n1)c1ccc(F)c(Cl)c1F [Example 2.2, N′-(3-chloro-2,4-difluoro-phenyl)-N-(4,6-dimorpholin-4-ylpyridin-2-yl)-N′-methyl-pyrimidine-2,4-diamine] | 808 nM |  |  |
| CN(c1ccnc(Nc2cc(Cl)nc(N3CCOCC3)c2)n1)c1ccc(F)c(Cl)c1F [Example 2.3, N′-(3-chloro-2,4-difluoro-phenyl)-N-(2-chloro-6-morpholin-4-yl-pyridin-4-yl)-N′-methyl-pyrimidine-2,4-diamine] | 1780 nM |  |  |
| CN(c1ccnc(Nc2cc(N3CCOCC3)nc(N3CCOCC3)n2)n1)c1ccc(F)c(Cl)c1F [Example 2.4, N′-(3-chloro-2,4-difluoro-phenyl)-N-(2,6-dimorpholin-4-ylpyrimidin-4-yl)-N′-methyl-pyrimidine-2,4-diamine] | 6270 nM |  |  |
| Cc1ccc(CO)cc1N(C)c1ccnc(Nc2cc(Cl)cc(N3CCOCC3)n2)n1 [Example 3, [3-[[2-[(4-chloro-6-morpholin-4-yl-pyridin-2-yl)amino]pyrimidin-4-yl]-methyl-amino]-4-methyl-phenyl]methanol] | 198 nM | 28 nM |  |

Other lines, results leading:

| IC50 (recombinant EphB4; [1]) | IC50 (human EphB4) | IC50 (recombinant EphB4; [2]) | SMILES |
| --- | --- | --- | --- |
| 456 nM | 302 nM |  | Cc1ccc(CO)cc1N(C)c1ccnc(Nc2cc(N3CCOCC3)cc(N3CCOCC3)n2)n1 [Example 4.2, [3-[[2-[(4,6-dimorpholin-4-ylpyridin-2-yl)amino]pyrimidin-4-yl]-methyl-amino]-4-methyl-phenyl]methanol] |
| 473 nM |  |  | Cc1ccc(CO)cc1N(C)c1ccnc(Nc2cc(Cl)nc(N3CCOCC3)c2)n1 [Example 4.3, [3-[[2-[(2-chloro-6-morpholin-4-yl-pyridin-4-yl)amino]pyrimidin-4-yl]-methyl-amino]-4-methyl-phenyl]methanol] |
|  |  | 2.31 nM | COc1ccc(C)c(N(C)c2ccnc(Nc3cc(N4CCOCC4)nc(N4CCN(C)CC4)c3)n2)c1 [Example 5.1, N4-(5-methoxy-2-methylphenyl)-N4-methyl-N2-(2-(4-methylpiperazin-1-yl)-6-morpholinopyridin-4-yl)pyrimidine-2,4-diamine] |
|  |  | 3.25 nM | COc1ccc(C)c(N(C)c2ccnc(Nc3cc(N4CCOCC4)nc(N4CCC(O)CC4)c3)n2)c1 [Example 5.2, 1-(4-(4-((5-methoxy-2-methylphenyl)(methyl)amino)pyrimidin-2-ylamino)-6-morpholinopyridin-2-yl)piperidin-4-ol] |
